Results from ChEMBL document CHEMBL1201862, “PubChem BioAssay data set” (2004).
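How tested: cells in 96-well plates exposed to compound for 48 hours at five concentrations. GI50 = concentration required for 50% inhibition of growth.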 Calls of active or inactive are those of the source. No stated cut-off is given here; in the data, active = GI50 up to about 1.1 µM and inactive = higher.

What was measured:
Experiment in all cases: NCI tumour cell line growth inhibition, 48 h
LOX IMVI = tested on: LOX IMVI
NCI-H522 = tested on: NCI-H522
SK-OV-3 = tested on: SK-OV-3
M19-MEL = tested on: M19-MEL
DMS-114 = tested on: DMS-114
RPMI-8226 = tested on: RPMI-8226
SNB-78 = tested on: SNB-78
EKVX = tested on: EKVX
U-251 = tested on: U-251
K562 = tested on: K562
M14 = tested on: M14
ACHN = tested on: ACHN
Malme-3M = tested on: Malme-3M
HOP-92 = tested on: HOP-92
NCI-H226 = tested on: NCI-H226
UACC-62 = tested on: UACC-62
CAKI-1 = tested on: CAKI-1
SF-295 = tested on: SF-295
SNB-75 = tested on: SNB-75
SK-MEL-5 = tested on: SK-MEL-5
OVCAR-8 = tested on: OVCAR-8
SK-MEL-2 = tested on: SK-MEL-2
HCC 2998 = tested on: HCC 2998
SK-MEL-28 = tested on: SK-MEL-28
IGROV-1 = tested on: IGROV-1
SF-268 = tested on: SF-268
KM-20L2 = tested on: KM-20L2
DLD-1 = tested on: DLD-1
NCI-H23 = tested on: NCI-H23
OVCAR-3 = tested on: OVCAR-3
SF-539 = tested on: SF-539
LXFL 529 = tested on: LXFL 529
SNB-19 = tested on: SNB-19
HOP-18 = tested on: HOP-18
HT-29 = tested on: HT-29
A498 = tested on: A498
UACC-257 = tested on: UACC-257
786-0 = tested on: 786-0
SN12C = tested on: SN12C
HL-60 = tested on: HL-60
TK-10 = tested on: TK-10
OVCAR-4 = tested on: OVCAR-4
KM12 = tested on: KM12
COLO 205 = tested on: COLO 205
OVCAR-5 = tested on: OVCAR-5
HOP-62 = tested on: HOP-62
HCT-116 = tested on: HCT-116
HCT-15 = tested on: HCT-15
SW-620 = tested on: SW-620
NCI-H460 = tested on: NCI-H460
MOLT-4 = tested on: MOLT-4
UO-31 = tested on: UO-31
A549 = tested on: A549
CCRF-CEM = tested on: CCRF-CEM
DMS-273 = tested on: DMS-273
RXF 393 = tested on: RXF 393
SR = tested on: SR

NC(CCCCNCc1ccccc1O)C(=O)O (centres undefined)
GI50 (LOX IMVI): > 100 µM (inactive) | GI50 (NCI-H522): > 100 µM (inactive) | GI50 (SK-OV-3): > 100 µM (inactive) | GI50 (M19-MEL): > 100 µM (inactive) | GI50 (DMS-114): > 100 µM (inactive) | GI50 (RPMI-8226): > 100 µM (inactive) | GI50 (SNB-78): > 100 µM (inactive) | GI50 (EKVX): > 100 µM (inactive) | GI50 (U-251): > 100 µM (inactive) | GI50 (K562): > 100 µM (inactive) | GI50 (M14): > 100 µM (inactive) | GI50 (ACHN): > 100 µM (inactive) | GI50 (Malme-3M): > 100 µM (inactive) | GI50 (HOP-92): > 100 µM (inactive) | GI50 (NCI-H226): > 100 µM (inactive) | GI50 (UACC-62): > 100 µM (inactive) | GI50 (CAKI-1): > 100 µM (inactive) | GI50 (SF-295): > 100 µM (inactive) | GI50 (SNB-75): 93.5 µM (inactive) | GI50 (SK-MEL-5): > 100 µM (inactive) | GI50 (OVCAR-8): > 100 µM (inactive) | GI50 (SK-MEL-2): > 100 µM (inactive) | GI50 (HCC 2998): > 100 µM (inactive) | GI50 (SK-MEL-28): > 100 µM (inactive) | GI50 (IGROV-1): > 100 µM (inactive) | GI50 (SF-268): > 100 µM (inactive) | GI50 (KM-20L2): > 100 µM (inactive) | GI50 (DLD-1): > 100 µM (inactive) | GI50 (NCI-H23): > 100 µM (inactive) | GI50 (OVCAR-3): > 100 µM (inactive) | GI50 (SF-539): > 100 µM (inactive) | GI50 (LXFL 529): > 100 µM (inactive) | GI50 (SNB-19): > 100 µM (inactive) | GI50 (HOP-18): > 100 µM (inactive) | GI50 (HT-29): > 100 µM (inactive) | GI50 (A498): > 100 µM (inactive) | GI50 (UACC-257): > 100 µM (inactive) | GI50 (786-0): > 100 µM (inactive) | GI50 (SN12C): > 100 µM (inactive) | GI50 (HL-60): > 100 µM (inactive) | GI50 (TK-10): > 100 µM (inactive) | GI50 (OVCAR-4): > 100 µM (inactive) | GI50 (KM12): > 100 µM (inactive) | GI50 (COLO 205): > 100 µM (inactive) | GI50 (OVCAR-5): > 100 µM (inactive) | GI50 (HOP-62): > 100 µM (inactive) | GI50 (HCT-116): > 100 µM (inactive) | GI50 (HCT-15): > 100 µM | GI50 (SW-620): > 100 µM (inactive) | GI50 (NCI-H460): > 100 µM (inactive) | GI50 (MOLT-4): > 100 µM (inactive) | GI50 (UO-31): > 100 µM (inactive) | GI50 (A549): > 100 µM (inactive) | GI50 (CCRF-CEM): > 100 µM (inactive) | GI50 (DMS-273): > 100 µM (inactive)

N#CCc1ccc(C(C#N)/C(CCCC(=O)Nc2cccc([N+](=O)[O-])c2)=N\NC(=O)NN)cc1 (centres undefined)
GI50 (NCI-H522): > 100 µM (inactive) | GI50 (SK-OV-3): > 100 µM (inactive) | GI50 (M19-MEL): > 100 µM (inactive) | GI50 (DMS-114): > 100 µM (inactive) | GI50 (RPMI-8226): > 100 µM (inactive) | GI50 (SNB-78): > 100 µM (inactive) | GI50 (EKVX): > 100 µM (inactive) | GI50 (U-251): > 100 µM (inactive) | GI50 (K562): > 100 µM (inactive) | GI50 (M14): > 100 µM (inactive) | GI50 (RXF 393): > 100 µM (inactive) | GI50 (ACHN): > 100 µM (inactive) | GI50 (Malme-3M): > 100 µM (inactive) | GI50 (HOP-92): > 100 µM (inactive) | GI50 (NCI-H226): > 100 µM (inactive) | GI50 (UACC-62): > 100 µM (inactive) | GI50 (CAKI-1): > 100 µM (inactive) | GI50 (SF-295): > 100 µM (inactive) | GI50 (SNB-75): > 100 µM (inactive) | GI50 (SK-MEL-5): > 100 µM (inactive) | GI50 (OVCAR-8): > 100 µM (inactive) | GI50 (SK-MEL-2): > 100 µM (inactive) | GI50 (HCC 2998): > 100 µM (inactive) | GI50 (SK-MEL-28): > 100 µM (inactive) | GI50 (IGROV-1): > 100 µM (inactive) | GI50 (SF-268): > 100 µM (inactive) | GI50 (KM-20L2): > 100 µM (inactive) | GI50 (DLD-1): > 100 µM (inactive) | GI50 (NCI-H23): > 100 µM (inactive) | GI50 (OVCAR-3): > 100 µM (inactive) | GI50 (SF-539): > 100 µM (inactive) | GI50 (LXFL 529): > 100 µM (inactive) | GI50 (SNB-19): > 100 µM (inactive) | GI50 (HOP-18): > 100 µM (inactive) | GI50 (HT-29): > 100 µM (inactive) | GI50 (A498): > 100 µM (inactive) | GI50 (UACC-257): > 100 µM (inactive) | GI50 (786-0): > 100 µM (inactive) | GI50 (SN12C): > 100 µM (inactive) | GI50 (HL-60): > 100 µM (inactive) | GI50 (TK-10): > 100 µM (inactive) | GI50 (OVCAR-4): > 100 µM (inactive) | GI50 (SR): > 100 µM (inactive) | GI50 (KM12): > 100 µM (inactive) | GI50 (COLO 205): > 100 µM (inactive) | GI50 (OVCAR-5): > 100 µM (inactive) | GI50 (HOP-62): > 100 µM (inactive) | GI50 (HCT-116): > 100 µM (inactive) | GI50 (HCT-15): > 100 µM | GI50 (SW-620): > 100 µM (inactive) | GI50 (NCI-H460): > 100 µM (inactive) | GI50 (MOLT-4): > 100 µM (inactive) | GI50 (UO-31): > 100 µM (inactive) | GI50 (A549): > 100 µM (inactive) | GI50 (CCRF-CEM): > 100 µM (inactive) | GI50 (DMS-273): > 100 µM (inactive)

Cc1c(-c2ccccc2)c(=O)oc2ccc(Cl)cc12
GI50 (LOX IMVI): > 100 µM (inactive) | GI50 (NCI-H522): 33.7 µM (inactive) | GI50 (SK-OV-3): 34.4 µM (inactive) | GI50 (M19-MEL): > 100 µM (inactive) | GI50 (DMS-114): 26.6 µM (inactive) | GI50 (RPMI-8226): > 100 µM (inactive) | GI50 (SNB-78): 26 µM (inactive) | GI50 (EKVX): 64.7 µM (inactive) | GI50 (U-251): 46.9 µM (inactive) | GI50 (K562): > 100 µM (inactive) | GI50 (M14): 26.7 µM (inactive) | GI50 (Malme-3M): 99.3 µM (inactive) | GI50 (HOP-92): 32.7 µM (inactive) | GI50 (NCI-H226): > 100 µM (inactive) | GI50 (UACC-62): 59.8 µM (inactive) | GI50 (SF-295): > 100 µM (inactive) | GI50 (SNB-75): 16.1 µM (inactive) | GI50 (SK-MEL-5): 40.3 µM (inactive) | GI50 (OVCAR-8): 53.3 µM (inactive) | GI50 (SK-MEL-2): > 100 µM (inactive) | GI50 (HCC 2998): > 100 µM (inactive) | GI50 (SK-MEL-28): > 100 µM (inactive) | GI50 (IGROV-1): > 100 µM (inactive) | GI50 (SF-268): 90.2 µM (inactive) | GI50 (DLD-1): > 100 µM (inactive) | GI50 (NCI-H23): 57.8 µM (inactive) | GI50 (OVCAR-3): > 100 µM (inactive) | GI50 (SF-539): 38.2 µM (inactive) | GI50 (LXFL 529): > 100 µM (inactive) | GI50 (SNB-19): 63 µM (inactive) | GI50 (HOP-18): > 100 µM (inactive) | GI50 (HT-29): > 100 µM (inactive) | GI50 (A498): > 100 µM (inactive) | GI50 (UACC-257): 8.55 µM (inactive) | GI50 (786-0): 36.5 µM (inactive) | GI50 (SN12C): > 100 µM (inactive) | GI50 (HL-60): > 100 µM (inactive) | GI50 (TK-10): 33.3 µM (inactive) | GI50 (OVCAR-4): 53.3 µM (inactive) | GI50 (SR): > 100 µM (inactive) | GI50 (KM12): > 100 µM (inactive) | GI50 (COLO 205): > 100 µM (inactive) | GI50 (OVCAR-5): > 100 µM (inactive) | GI50 (HOP-62): 27.9 µM (inactive) | GI50 (HCT-116): 38.1 µM (inactive) | GI50 (HCT-15): > 100 µM | GI50 (SW-620): > 100 µM (inactive) | GI50 (NCI-H460): 70.5 µM (inactive) | GI50 (MOLT-4): > 100 µM (inactive) | GI50 (UO-31): > 100 µM (inactive) | GI50 (A549): > 100 µM (inactive) | GI50 (CCRF-CEM): > 100 µM (inactive) | GI50 (DMS-273): 87.1 µM (inactive)
